Test systems include ACHN renal; CCRF-CEM leukemia; COLO 205 colon; DU-145 prostate; IGROV1 ovarian; K-562 leukemia; MOLT-4 leukemia; NCI-H226 lung; NCI-H460 lung; OVCAR-5 ovarian; SK-MEL-2 melanoma; SK-MEL-5 melanoma; SNB-19 CNS; SR leukemia; U251 CNS; HCC-2998 colon; NCI-H522 lung; RPMI-8226 leukemia.
Holding throughout (assay): NCI tumour cell line growth inhibition, 48 h

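96-well plates; 48 h exposure; 5 concentrations. Endpoints by linear interpolation between flanking doses. Not reached: highest tested concentration assigned. TGI denotes the concentration required for complete inhibition of growth.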

`O=c1[nH]c(=O)n(COCCO)c2ccc(Br)cc12`: the TGI with ACHN renal, in the test with CCRF-CEM leukemia, with COLO 205 colon, in the test with DU-145 prostate, in the test on IGROV1 ovarian and in the test on K-562 leukemia was more than 100 µM throughout. The TGI in the test with MOLT-4 leukemia, in the test on NCI-H226 lung, with NCI-H460 lung, in the test on OVCAR-5 ovarian, in the test with SK-MEL-2 melanoma and in the test on SK-MEL-5 melanoma was more than 100 µM throughout. Also, the TGI with SNB-19 CNS, with SR leukemia and in the test on U251 CNS was more than 100 µM in each case.

`O=C(Cc1ccccc1)NN1C(=O)C(Cl)C1c1ccc([N+](=O)[O-])cc1` (centres undefined): the TGI in the test on ACHN renal, with COLO 205 colon, with HCC-2998 colon, with IGROV1 ovarian, with K-562 leukemia and with MOLT-4 leukemia was more than 100 µM throughout. Moreover, the TGI in the test on NCI-H226 lung was more than 100 µM; in the test with NCI-H460 lung it was more than 100 µM; with NCI-H522 lung, 76.3 µM; in the test with OVCAR-5 ovarian, more than 100 µM; with RPMI-8226 leukemia, more than 100 µM; in the test with SK-MEL-2 melanoma, more than 100 µM. The TGI with SK-MEL-5 melanoma, in the test with SNB-19 CNS, in the test on SR leukemia and with U251 CNS was more than 100 µM each time.

Take `C=CN1C(=O)OC[C@@H]1c1ccccc1`: the TGI with ACHN renal, in the test with CCRF-CEM leukemia, with COLO 205 colon, in the test on HCC-2998 colon, with IGROV1 ovarian and in the test on K-562 leukemia was more than 100 µM each time. Moreover, the TGI in the test on MOLT-4 leukemia, in the test with NCI-H226 lung, in the test on NCI-H460 lung, in the test on NCI-H522 lung, in the test with OVCAR-5 ovarian and with RPMI-8226 leukemia was more than 100 µM each time. In addition, the TGI in the test with SK-MEL-2 melanoma, with SK-MEL-5 melanoma, with SNB-19 CNS and with U251 CNS was more than 100 µM throughout.

As for `Nc1ccc(C(=O)NN2C(=O)C(Cl)C2c2cc(Br)ccc2O)cc1` (centres undefined), the TGI was more than 100 µM in the test with ACHN renal; more than 100 µM in the test on CCRF-CEM leukemia; more than 100 µM in the test with COLO 205 colon; more than 100 µM in the test with HCC-2998 colon; 94.3 µM in the test with IGROV1 ovarian; more than 100 µM with K-562 leukemia. For the same molecule, the TGI is more than 100 µM with NCI-H226 lung; more than 100 µM in the test on NCI-H460 lung; 38.5 µM in the test on NCI-H522 lung; more than 100 µM in the test on OVCAR-5 ovarian; more than 100 µM with RPMI-8226 leukemia; more than 100 µM in the test on SK-MEL-5 melanoma. For the same molecule, the TGI in the test on SNB-19 CNS was more than 100 µM; with U251 CNS, 90.3 µM.

Regarding `COP(=O)(OC)C(=NCc1ccccc1)NNc1ccc([N+](=O)[O-])cc1`, the TGI was more than 100 µM in the test with ACHN renal; 55.1 µM with CCRF-CEM leukemia; more than 100 µM in the test with COLO 205 colon; more than 100 µM in the test with HCC-2998 colon; more than 100 µM in the test with IGROV1 ovarian; more than 100 µM with K-562 leukemia. The TGI in the test on MOLT-4 leukemia is 74.8 µM; in the test with NCI-H460 lung, 79.3 µM; in the test on NCI-H522 lung, 38.6 µM; in the test with OVCAR-5 ovarian it was more than 100 µM; in the test with RPMI-8226 leukemia it was 57.1 µM; in the test with SK-MEL-2 melanoma, 52.9 µM. The results for the TGI with SK-MEL-5 melanoma, with SR leukemia and in the test with U251 CNS were 34.8 µM, 56.9 µM and 66.9 µM, respectively.

In the case of `COc1ccc(N(C)Sc2ccccc2)cc1`, the TGI is 58.6 µM in the test on CCRF-CEM leukemia; more than 100 µM with COLO 205 colon; more than 100 µM with HCC-2998 colon; more than 100 µM with IGROV1 ovarian; more than 100 µM in the test with K-562 leukemia; 75.6 µM with MOLT-4 leukemia. Further, the TGI in the test with NCI-H460 lung, with NCI-H522 lung, in the test with OVCAR-5 ovarian, in the test on RPMI-8226 leukemia, with SK-MEL-2 melanoma and in the test with SK-MEL-5 melanoma was more than 100 µM each time. Besides, the TGI in the test with SNB-19 CNS, in the test on SR leukemia and in the test on U251 CNS was more than 100 µM each time.

`COc1c(OC)c(N)c2cc(C)c(=O)c(C)cc2c1N`: the TGI in the test with ACHN renal, with CCRF-CEM leukemia, with COLO 205 colon, with HCC-2998 colon, with IGROV1 ovarian and in the test with K-562 leukemia was more than 100 µM throughout. In addition, the TGI with MOLT-4 leukemia, in the test on NCI-H460 lung, in the test on NCI-H522 lung, in the test on OVCAR-5 ovarian, in the test on RPMI-8226 leukemia and in the test on SK-MEL-2 melanoma was more than 100 µM each time. The TGI with SK-MEL-5 melanoma was more than 100 µM; in the test with SNB-19 CNS, more than 100 µM; with SR leukemia, 45.7 µM; in the test with U251 CNS it was more than 100 µM.

In the case of `CN(C(=O)c1ccc(Cl)cc1)C(=S)N1CCN(c2ccccn2)CC1`, the TGI in the test on ACHN renal, in the test on CCRF-CEM leukemia, in the test with COLO 205 colon, in the test with IGROV1 ovarian, in the test on K-562 leukemia and in the test with MOLT-4 leukemia was more than 100 µM throughout. The TGI in the test on NCI-H226 lung, in the test with NCI-H460 lung, with NCI-H522 lung, with OVCAR-5 ovarian, in the test on RPMI-8226 leukemia and with SK-MEL-2 melanoma was more than 100 µM throughout. The TGI in the test with SK-MEL-5 melanoma, with SNB-19 CNS, in the test on SR leukemia and with U251 CNS was more than 100 µM in each case.

As for `CN1CCN(c2cc3c(cc2F)c(=O)c(C(=O)O)cn3C2CC2)CC1CC#N` (centres undefined), the TGI with ACHN renal, in the test on CCRF-CEM leukemia, in the test with COLO 205 colon, in the test on DU-145 prostate, in the test on HCC-2998 colon and with IGROV1 ovarian was more than 100 µM each time. In addition, the TGI with K-562 leukemia, in the test on MOLT-4 leukemia, in the test on NCI-H226 lung, in the test with NCI-H460 lung, in the test on OVCAR-5 ovarian and with RPMI-8226 leukemia was more than 100 µM throughout. For the same molecule, the TGI with SK-MEL-5 melanoma, with SNB-19 CNS, in the test on SR leukemia and in the test on U251 CNS was more than 100 µM in each case.

(Values after PubChem BioAssay (NCI).)
